Results reported in patent US8735141B2, “Vermiculture compositions” (M-I L.L.C., priority 2001, dated 2014).

How the values were obtained:
[1] = Biodegradability (respiration rate and hydrocarbon loss in a reference moist soil); conditions: base fluids, 1 = most biodegradable
Protocol: (§1) Environmental tests were carried out on the base fluids, several muds, and a few samples of mud-coated cuttings before and after treatment in a bioreactor. The tests consisted of the following: (a) biodegradability (respiration rate and hydrocarbon loss in a reference moist soil); (b) phytoxicity (alfalfa seed emergence and root elongation); (c) earthworm survival; (d) springtail survival; and (e) Microtox (IC-50 on bioluminescent bacterium Photobacterium phosporeum).
Biodegradability and toxicity of Formulations A and N are contrasted with those of typical diesel/CaCl2/barite fluid in Table 4. The leading rate on the test soil in Table 4 was 6% w/w. […] In comparing formulation A with a similar formulation weighted with barite (instead of hematite), biodegradability and toxicity appear to be similar for the two fluids. However, a soil-enhancing iron source is considered desirable for its long-term potential benefits.
Biodegradability (Respiration rate and hydrocarbon loss in moist soil.)

[2] = test system: Earthworms (Esenia fetida); experiment: Earthworm survival; assay type: in vivo; conditions: base fluids
Protocol: as §1
Earthworms (Esenia fetida) toxicity

alfalfa = experiment: Alfalfa phytotoxicity (seed emergence, root elongation, shoot mass); assay type: in vivo; conditions: base fluids; normalized to Control test values of 100
Protocol: as §1
Alfalfa seed emergence and root elongation.

[3] = Toxicity of various base fluids, overall rank; conditions: 1 = least toxic
Protocol: as §1
One of skill in the art will appreciate that the results of Table 1 indicate that diesel and the branched paraffins are more resistant to rapid biodegradation than the other four fluids.

Biodegradability Rank [1]: 4
Substance: Isomerized tetradecene [Isomerized tetradecene C14 (IO)]
Animal Toxicity % Earthworm Survival [2]: 100%
Alfalfa Phytotoxicity % Root Elongation (alfalfa): 144%
Alfalfa Phytotoxicity % Seed Emergence (alfalfa): 101%
Toxicity Rank [3]: 4
